Literature values in patent US20250019715A1, “Ribosomal Biosynthesis Of Moroidin Peptides In Plants” (Whitehead Institute for Biomedical Research, priority 2021, published 2025).
Ends that are not written are not given here.

Tests used:
tubulin polymerization = conditions: qualitative statement from prior knowledge
pain sensation = conditions: isolated as pain-causing agent from Dendrocnide moroides

Row | Compound | inhibitory activity against tubulin polymerization (tubulin polymerization) | pain-causing activity (pain sensation)
1 | celogentin C (QLLVWPRH; bridge (positions not given here); also: bicyclic crosslinks, places not given here) [moroidin structural analog from Celosia argentea, core peptide QLLVWPRH] | potent inhibitory activity | –
2 | CC(C)C[C@@H]1NC(=O)[C@@H](NC(=O)[C@@H]2CCC(=O)N2)[C@@H](C(C)C)c2ccc3c4c([nH]c3c2)-n2cnc(c2)C[C@@H](C(=O)O)NC(=O)CNC(=O)[C@H](CCCN=C(N)N)NC(=O)[C@H](C4)NC(=O)[C@H](C(C)C)NC1=O [moroidin] | potent inhibitory activity | pain-causing agent
